What was measured:
[1] = test system: Xenopus Opn4x C94^2.61F/T188^ECL2S/A269^6.52S mutant; test: GsX GloSensor assay with Gsα/q11; assay type: cell-based; details: 16.7 μM AA92593, COS-1 cells
From the text: (§1) The GsX GloSensor assay using Gsα/q11 of Xenopus Opn4x and chicken Opn4-1 detected the light-dependent Gq activation in both non-mammalian-type melanopsins (Fig. 6, A and D). […] The ineffectiveness of AA92593 is consistent with the fact that Phe-94^2.61, Ser-188^ECL2, and Ser-269^6.52 are not conserved among non-mammalian-type melanopsins (Figs. 2A, S2 and S3). If these three residues are important for the antagonistic effect against melanopsins, the introduction of Phe-94^2.61/Ser-188^ECL2/Ser-269^6.52 into the non-mammalian-type melanopsins would make them susceptible to AA92593. As expected, the substitutions of C94^2.61F/T188S^ECL2/A269^6.52S in Xenopus Opn4x and chicken Opn4-1 increased their sensitivity to AA92593 by ∼49% and ∼22%, respectively (Fig. 6, B and E, G–I). […]
(§2) For GloSensor assay, opsins, GloSensor assay sensor (coded by pGlo-22F), and NanoBiT-tagged G proteins were transiently expressed in COS-1 cells (kindly provided from Dr David Farrens, Oregon Health and Science University) using PEI as described previously ([24], [52]). […] For GFP-fluorescence microscopy, a 35-mm cell culture dish (IWAKI) was transfected with 2 μg melanopsin-GFP plasmid and 8 μg PEI in 400 μl Opti-mem and 1.2 ml D-MEM. […]

[2] = test system: chicken Opn4-1 C94^2.61F/T188^ECL2S/A269^6.52S mutant; test: GsX GloSensor assay with Gsα/q11; assay type: cell-based; details: 16.7 μM AA92593, COS-1 cells
From the text: as §1, §2

COc1ccc(S(=O)(=O)N2CCCCC2)cc1C [AA92593]
increase in sensitivity to AA92593 vs WT [1]: ~49%
increase in sensitivity to AA92593 vs WT [2]: ~22%

From publication PMC12051620, “Molecular basis underlying the specificity of an antagonist AA92593 for mammalian melanopsins” (The Journal of Biological Chemistry, 2025)
